SMILES strings stand for the structures.

For the assay, the target named is Tyrosine-protein kinase BTK (Homo sapiens, UniProt Q06187). The experiment in a line: Inhibition Assay: Plates assayed are 96-well polypropylene (Greiner) and 96-well 1.2 μm hydrophilic PVDF filter plates (Millipore). Concentrations reported here are final assay concentrations: 10-100 μM compounds in DMSO (Burdick and Jackson), 5-10 nM Btk enzyme (His-tagged, full-length), 30 μM peptide substrate (Biotin-Aca-[…]-NH2), 100 μM ATP (Sigma), 8 mM imidazole (Sigma, pH 7.2), 8 mM glycerol-2-phosphate (Sigma), 200 μM EGTA (Roche Diagnostics), 1 mM MnCl2 (Sigma), 20 mM MgCl2 (Sigma), 0.1 mg/ml BSA (Sigma), 2 mM DTT (Sigma), 1 μCi 33P ATP (Amersham), 20% streptavidin sepharose beads (Amersham), 50 mM EDTA (Gibco), 2 M NaCl (Gibco), 2 M NaCl w/1% phosphoric acid (Gibco), microscint-20 (Perkin Elmer).
Tyrosine-protein kinase BTK, sequence (Q06187 whole entry): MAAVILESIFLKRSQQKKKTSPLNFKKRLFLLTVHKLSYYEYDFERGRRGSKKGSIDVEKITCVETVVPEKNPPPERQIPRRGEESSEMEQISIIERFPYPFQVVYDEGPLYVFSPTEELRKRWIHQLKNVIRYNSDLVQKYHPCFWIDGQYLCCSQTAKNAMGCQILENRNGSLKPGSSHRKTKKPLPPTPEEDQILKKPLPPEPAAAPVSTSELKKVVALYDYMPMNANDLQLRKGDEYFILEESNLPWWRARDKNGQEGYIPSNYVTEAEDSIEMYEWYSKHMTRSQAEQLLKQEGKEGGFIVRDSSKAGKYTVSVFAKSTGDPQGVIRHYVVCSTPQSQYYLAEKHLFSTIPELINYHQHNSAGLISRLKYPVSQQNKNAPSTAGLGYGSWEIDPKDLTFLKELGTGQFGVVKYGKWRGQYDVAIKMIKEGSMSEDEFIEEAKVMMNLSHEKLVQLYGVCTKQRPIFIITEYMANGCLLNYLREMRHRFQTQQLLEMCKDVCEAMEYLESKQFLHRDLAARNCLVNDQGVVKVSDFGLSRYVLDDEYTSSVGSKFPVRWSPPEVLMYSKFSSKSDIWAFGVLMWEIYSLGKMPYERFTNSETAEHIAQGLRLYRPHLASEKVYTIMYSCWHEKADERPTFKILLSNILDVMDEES

For the compound `CC(C)(C)c1cc(F)c2c(=O)n(-c3cccc(-n4cc(C(N)=O)c(Nc5ccc(S(C)(=O)=O)cc5)n4)c3CO)ncc2c1`, the IC50 (as a rule, the midpoint of a concentration-inhibition curve) came out at 0.09 nM.

(Values after ChEMBL document CHEMBL3639151, “Inhibitors of bruton's tyrosine kinase” (2014).)
